Values joined by “and” are separate entries in the source; they are usually repeats but may differ in a detail not shown here. Equal values may be shown once. Active and inactive are the calls of the source.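 The calls were made as follows: active = fitted curve reaches a 40% rise in fluorescent cells at or below the top valid dose; inactive = opposite-direction effect, or the rest.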

One experiment concerns mTEFS fibroblasts autofluorescence, GFP-channel imaging, 3 days. As to the kind of experiment: autofluorescent compounds in non-GFP fibroblasts, dose response, artefact control for X-chromosome reactivation project, imaging, mTEFS fibroblasts, cherry-pick (AID 743396).
Conditions: not given
For the compound `CC1=CC(=Cc2sc3ccccc3[n+]2C)C=C(C)O1`, the AC40 was > 19.5 µM (inactive).

Staying with this experiment, now noted: cells pretreated with 5-aza-dC.
`CC1=NN(c2nc(N)nc(/C(C#N)=C/c3ccc([N+](=O)[O-])o3)n2)C(C)(C)C1`: the AC40 is 4.78 µM.
`Oc1ccc(/C=N/Nc2ccnc3cc(Cl)ccc23)c(O)c1`: the AC40 is > 19.5 µM (inactive).
With `Cc1oc2ccc(NS(=O)(=O)c3cccc4cccnc34)cc2c1C(=O)OC(C)C`, the AC40 is 4.77 µM.
With `COc1ccc2nc(C)cc(NCc3ccc(F)cc3)c2c1`, the AC40 is 4.85 µM.
On to `CC(=O)[C@@]1(O)Cc2c(O)c3c(c(O)c2[C@H](O[C@H]2C[C@H](N)[C@H](O)[C@H](C)O2)C1)C(=O)c1ccccc1C3=O`, for which the AC40 was > 2.1 µM (inactive).
Take `Cc1cccc(NC(=O)/C=C/c2ccc([N+](=O)[O-])s2)c1`: the AC40 was 3.68 µM.
`CC(=O)Nc1sc(/C(C#N)=C/c2ccc(Cl)c(Cl)c2)nc1-c1ccc(C)cc1`: the AC40 is 3.55 µM.
On the same count and under the same terms, for `CN1CCc2c(sc(NC(=O)c3ccc(S(=O)(=O)N4CCc5ccccc54)cc3)c2C(N)=O)C1` the value was 18 µM; for `COc1ccc(C(=O)Nc2c(F)c(F)c(F)c(F)c2F)cc1OC`, > 19.5 µM (inactive).
Turning to `Cc1cccc(-c2cccc3[nH]c4c(c23)CCN2C(=O)[C@H]3[C@H](C)ON(C)[C@H]3C[C@@H]42)c1`, the AC40 is 14.7 µM.
In the case of `COc1cc2c3nnc(-c4ccccc4)c-3cn(Cc3ccccc3F)c2cc1OC`, the AC40 is 4.02 µM.
`Cc1[nH]c2ccccc2c1/C=N/Nc1ccc([N+](=O)[O-])cc1`: the AC40 was 12.2 µM.
As to `Nc1[nH]c2cc([N+](=O)[O-])ccc2c1-c1ccccn1`, the AC40 is 8.95 µM.
`C[n+]1c2cc(N)ccc2cc2ccc(N)cc21`: the AC40 is 0.522 µM and 0.378 µM.
`N#C/C(=C/c1ccc(N2CCCCC2)o1)C(=O)Nc1ccc2ccccc2c1`: the AC40 was 1.53 µM.
For the compound `N#C/C(=C/c1ccc(N2CCCCC2)o1)C(=O)NCCc1c[nH]c2ccccc12`, the AC40 is 5.61 µM.
`C[C@H]1CN([C@@H](C)CO)S(=O)(=O)c2ccc(Br)cc2O[C@H]1CN(C)C(=O)c1cccnc1`: the AC40 is > 6.8 µM (inactive).
Consider `CCc1cccc2cc3c(N)c(C(=O)Nc4ccc(S(=O)(=O)N5CCCC5)cc4)sc3nc12`, for which the AC40 is 7.09 µM.
Turning to `Cc1cccc2cc3c(N)c(C(=O)N4CCc5ccccc54)sc3nc12`, the AC40 is 10.5 µM.
As to `N#C/C(=C\c1ccc(N2CCCCC2)o1)C(=O)Nc1cccc(Br)c1`, the AC40 was 0.919 µM.
In the case of `CCN(CC)C1=CC2=CC(=C(C#N)C#N)CCC2CC1` (centres undefined), the AC40 was > 19.5 µM (inactive).
Take `CCOC(=O)/C(=C/C=C1\Sc2cc(C)c(C)cc2N1CC)C(C)=O`: the AC40 was 12.5 µM.
Still for that read-out and setting: to `Cc1nonc1NC(=O)CSc1nc2c(C)cccc2cc1C#N` belongs 9.02 µM; to `Cn1cc(C2=C(c3ccc(Cl)cc3Cl)C(=O)NC2=O)c2ccccc21`, 12.7 µM.
Regarding `O=c1oc2cc(O)ccc2cc1-c1nc2c(s1)CCc1ccccc1-2`, the AC40 is 4.39 µM.
In the case of `Cc1ccc2c(c1)c(/C=C/c1cc[n+](C)cc1)c(C)n2C`, the AC40 was 10.1 µM.
For `Cc1nnc(N2C(=O)c3cccc4c([N+](=O)[O-])ccc(c34)C2=O)s1`, the AC40 was > 19.5 µM (inactive).
Turning to `CCOC(=O)Cn1c(=O)c(-c2cc(Br)ccc2N)nc2ccccc21`, the AC40 was > 19.5 µM (inactive).
In the case of `CC(=O)Oc1cccc(N2C(=O)c3cccc4c([N+](=O)[O-])ccc(c34)C2=O)c1`, the AC40 is > 19.5 µM (inactive).
Take `O=[N+]([O-])c1ccc(N2N=C(c3ccccc3)CC2c2ccccc2O)cc1` (centres undefined): the AC40 is 14.1 µM.
On to `CN(C)CCCN1C(=O)c2cccc3c([N+](=O)[O-])ccc(c23)C1=O`, for which the AC40 is > 19.5 µM (inactive).
As to `CN1/C(=C/C=C(C#N)C#N)C(C)(C)c2ccccc21`, the AC40 was 19.4 µM.
In the case of `COC1C(CO)OC(n2c3c(Cl)cccc3c3c4c(c5c6cccc(Cl)c6[nH]c5c32)C(=O)NC4=O)C(O)C1O` (centres undefined), the AC40 is > 19.5 µM (inactive).
Turning to `COc1ccc(N(C)S(=O)(=O)c2cccc(C(=O)NCC(c3cccs3)N(C)C)c2)cc1` (centres undefined), the AC40 was 13.9 µM.
In the case of `COc1ccc(Cn2cc3c(-c4ccc(F)cc4)nnc-3c3cc(OC)c(OC)cc32)cc1`, the AC40 is 6.18 µM.
The same measure, in the same setting: to `N#C/C(=C/c1ccc(-c2ccccc2)o1)c1nc(-c2cccs2)cs1` belongs 7.35 µM.
Turning to `Nc1c(C(=O)c2cccs2)sc2nsc(SCCN3CCCCC3)c12`, the AC40 is 2.03 µM.
Consider `CCN1/C(=C/c2ccc3cc(C)ccc3[n+]2CC)Sc2cc(C)ccc21`, for which the AC40 is 6.21 µM.
In the case of `CC(O)CN(CC(C)O)c1ccc2c(c1)Cc1cc([N+](=O)[O-])ccc1-2` (centres undefined), the AC40 is > 19.5 µM (inactive).
Take `CCN1CCc2c(sc(NC(=O)c3ccc4ccccc4c3)c2C(N)=O)C1`: the AC40 is 3.45 µM.
Regarding `N#C/C(=C\c1ccc([N+](=O)[O-])o1)c1nc2ccccc2[nH]1`, the AC40 was > 19.5 µM (inactive).
Consider `O=[N+]([O-])c1ccc(C2=NN(c3ccccc3)C(c3ccco3)C2)cc1` (centres undefined), for which the AC40 is 2.59 µM.
As for `CCN(CC)c1ccc2cc(C(=O)c3cccs3)c(=O)oc2c1`, the AC40 is 11.3 µM.
As for `COc1ccc(C(=O)c2sc3nc(C)cc(-c4cccs4)c3c2N)cc1OC`, the AC40 is 16.3 µM.
The same measure, in the same setting: for `C=CCN1C(=O)[C@@H]2Cc3c([nH]c4ccccc34)C(c3cc(OC)c(OC)c(OC)c3)N2C1=S` (some centres undefined) the value was 15.5 µM.
With `CCCCNc1ccc2c3c(cccc13)C(=O)N(CCCC)C2=O`, the AC40 is 4.11 µM.
Still for that read-out and setting: for `O=[N+]([O-])c1ccc(N/N=C/c2ccc[nH]2)cc1` the value was > 19.5 µM (inactive); for `CC(C)N1CCc2c(sc(NC(=O)c3ccc4ccccc4c3)c2C(N)=O)C1`, 10.6 µM; for `Cc1cccc2cc3c(N)c(C(=O)N4CCCc5ccccc54)sc3nc12`, 10.2 µM.
Turning to `CCN1/C(=C/C=C/c2oc3ccc(-c4ccccc4)cc3[n+]2CC)Oc2ccc(-c3ccccc3)cc21`, the AC40 was 0.00627 µM.
Consider `O=c1[nH]c(=O)n([C@H]2C[C@H](O)[C@@H](CO)O2)cc1C(F)(F)F`, for which the AC40 is > 19.5 µM (inactive).
As to `Cc1ccc2cc3c(N)c(C(=O)Nc4c(C)[nH]c(=O)[nH]c4=O)sc3nc2c1`, the AC40 was > 19.5 µM (inactive).
As to `COc1ccc(CCNC(=O)c2ccc([N+](=O)[O-])cc2)cc1`, the AC40 was 18.8 µM.
For `CCN(CC)c1ccc2cc(-c3nc(-c4ccc(OC)cc4)cs3)c(=O)oc2c1`, the AC40 is 0.0781 µM.
On the same count and under the same terms, to `COC1=CC(=O)c2nc(Cl)ccc2C1=O` belongs 18.5 µM; to `CN(C)S(=O)(=O)c1ccc2c(c1)/C(=C/c1cc3c([nH]1)CCCC3)C(=O)N2`, 3.17 µM; to `O=[N+]([O-])c1ccc(/C=C/C2=NN(c3ccccc3)C(c3ccco3)C2)cc1` (centres undefined), 3.37 µM.
Same read-out and setting: to `CCN1/C(=C\c2ccc3cc(C)ccc3[n+]2CC)Sc2cc(C)c(C)cc21` belongs 15.7 µM; to `COC(=O)C1=C(C)NC(C)=C(C(=O)OC)C1C(=O)OCC(=O)c1ccc(F)cc1`, > 19.5 µM (inactive).
Turning to `Cc1cc(C)c2cc3c(N)c(C(=O)Nc4c(C)[nH]c(=O)[nH]c4=O)sc3nc2c1`, the AC40 is > 19.5 µM (inactive).
The same measure, in the same setting: to `COc1ccc(C(=O)c2sc3nc(C)cc(-c4cccs4)c3c2N)cc1` belongs 14.5 µM; to `Cc1ccc(NC(=O)/C=C/c2ccc([N+](=O)[O-])s2)cc1`, 4.44 µM; to `O=C1c2ccccc2C(=O)C1c1ccccc1`, > 19.5 µM (inactive).
For `CC(=O)Nc1cc2c3c(cccc3c1)-c1ccccc1-2`, the AC40 was 2.19 µM.
Regarding `O=C(NCc1ccccc1)c1cccc2c1C(=O)c1ccc(/C=C/c3ccccc3)cc1S2(=O)=O`, the AC40 is 15 µM.
Consider `COc1ccccc1N1N=C(c2ccc([N+](=O)[O-])cc2)CC1c1ccccc1` (centres undefined), for which the AC40 is 5.77 µM.
Take `O=CNc1ccc2c3c(cccc13)-c1ccccc1-2`: the AC40 is 8.57 µM.
The same measure, in the same setting: to `N#CC(C#N)=C1C=C2C=C(N3CCCCCC3)CCC2CC1` (centres undefined) belongs 6.6 µM; to `Cc1ccccc1-c1ccc(C2[C@@H]3CN(Cc4cocn4)C[C@H]2N3)cc1` (some centres undefined), > 2.35 µM (inactive); to `Cc1n[nH]c(=S)n(/N=C/c2cccc([N+](=O)[O-])c2)c1=O`, > 19.5 µM (inactive).
Turning to `Nc1ccc2c3c(cccc13)-c1ccccc1-2`, the AC40 is 1.49 µM.
For the compound `CC(=NNc1nc2ccccc2o1)c1cc2ccccc2cn1`, the AC40 is 8.99 µM.
Same read-out and setting: to `COc1ccccc1-[n+]1c(C)cc(/C=C2\Sc3ccccc3N2C)cc1C` belongs 3.52 µM.

For the origin of these results see PubChem BioAssay AID743396 (Broad Institute, 2014).
